Biological target: T1, recombinant human MMP-12 catalytic domain (Homo sapiens, UniProt P39900)
T1 construct: recombinant human MMP-12 catalytic domain; purchased Enzo BML-SE138
Test: MMP-12 inhibitory assay (fluorogenic substrate cleavage)
Format: biochemical
Settings: readout at 30 minutes, 37° C., Table 1
Protocol: The inhibitory effect of compounds on the rate of cleaving fluorogenic MMP substrate (Enzo, BML-P128) by recombinant human MMP-12 catalytic domain (Enzo, BML-SE138) was carried out by methods known in the art. Briefly, to each well of a 96-well black opaque plate, all the reagents were sequentially added by pipetting, and the final reaction contained 4 nM of recombinant human MMP-12 catalytic domain, 4 μM of fluorogenic MMP substrate, and various concentrations (0.15 nM to 10,000 nM) of tested compound dilutions in HEPES buffer (pH 7.5) containing 10 mM of CaCl2), 0.01% Brij® 35 (polyoxyethylene (23) lauryl ether), and 0.1 mg/ml of BSA.
The enzyme and compounds were pre-incubated on a shaker to mix in wells. After an hour of mixing, fluorogenic substrate was added to each well. Reaction without enzyme was used as a blank control in the plate. The plate was then fed into a plate reader to measure fluorescence intensity at Excitation/Emission wavelengths of 340 nm/440 nm every 10 mins for at least 1 hour at 37° C. The IC50 of each compound in MMP-12 inhibition was determined by using a readout obtained at time point 30 minutes.

T1 sequence (P39900 106-268 limits assumed): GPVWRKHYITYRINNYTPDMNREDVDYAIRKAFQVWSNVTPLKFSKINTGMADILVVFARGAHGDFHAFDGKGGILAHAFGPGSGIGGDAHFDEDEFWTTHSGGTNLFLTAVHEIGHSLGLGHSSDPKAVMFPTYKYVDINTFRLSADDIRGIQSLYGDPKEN

Row | SMILES | IC50 [nM]
1 | Cc1cc(COc2ccc(Sc3ccncc3C3NC(=O)N(C)C3=O)cc2)ccn1 (stereo not shown) [PC-41] | 100 to 1000
2 | Cc1cc(CCc2ccc(Oc3ccncc3C3NC(=O)NC3=O)cc2)ccn1 (stereo not shown) [PC-62] | 100 to 1000
3 | Cc1cncc(COc2ccc(Sc3cnccc3C3NC(=O)NC3=O)cc2)c1 (stereo not shown) [PC-19] | 100 to 1000
4 | O=C1NC(=O)C(c2cnccc2Oc2ccc(OCc3cccc(C(=O)O)c3)cc2)N1 (stereo not shown) [PC-23] | > 1000
5 | Cc1cccc(COc2ccc(S(=O)(=O)c3ccncc3C3NC(=O)NC3=O)cc2)c1 (stereo not shown) [PC-6] | 100 to 1000
6 | COc1ccc(CN2C(=O)NC(c3cnccc3Sc3ccc(OCc4ccnc(C)c4)cc3)C2=O)cc1 (stereo not shown) [PC-55] | 100 to 1000
7 | Cc1cncc(COc2ccc(Sc3ccncc3C3NC(=O)NC3=O)cc2)c1 (stereo not shown) [PC-17] | 100 to 1000
8 | Cc1cccc(COc2ccc(S(=O)(=O)c3cc[n+](O)cc3C3NC(=O)NC3=O)cc2)c1 (stereo not shown) [OC-4] | > 1000
9 | Cc1cc(COc2ccc(Sc3ccncc3C3NC(=O)NC3=O)cn2)ccn1 (stereo not shown) [PC-61] | 100 to 1000
10 | Cc1cccc(COc2ccc([S+]([O-])c3ccncc3C3NC(=O)NC3=O)cc2)c1 (stereo not shown) [PC-5] | 100 to 1000
11 | CCCOc1cccc(COc2ccc(Sc3ccsc3C3NC(=O)NC3=O)cc2)c1 (stereo not shown) [TC1] | 100 to 1000
12 | NC(=O)c1cc(COc2ccc(Sc3ccncc3C3NC(=O)NC3=O)cc2)ccn1 (stereo not shown) [PC-59] | 100 to 1000

Further lines, results first:

Row | IC50 [nM] | SMILES
13 | 10 to 100 | Cc1cccc(COc2ccc(Sc3cccnc3C3NC(=O)NC3=O)cc2)c1 (stereo not shown) [PC-3]
14 | 10 to 100 | Cc1cc(COc2ccc(Sc3c(C4NC(=O)NC4=O)ncn3C)cc2)ccn1 (stereo not shown) [OC-14]
15 | 10 to 100 | Cc1cc(COc2ccc(Oc3ccncc3C3NC(=O)NC3=O)cc2)ccn1 (stereo not shown) [PC-27]
16 | 10 to 100 | Cc1cc(CCc2ccc(Sc3ccncc3C3NC(=O)NC3=O)cc2)ccn1 (stereo not shown) [PC-57]
17 | 10 to 100 | Cc1cc(COc2ccc(Sc3ccncc3C3NC(=O)NC3=O)c(C)c2)ccn1 (stereo not shown) [PC-42]
18 | 10 to 100 | O=C1NC(=O)C(c2cnccc2Sc2ccc(OCc3ccc(CO)cc3)cc2)N1 (stereo not shown) [PC-7]
19 | 10 to 100 | Cc1cccc(COc2ccc(Sc3ccccc3C3NC(=O)NC3=O)cc2)c1 (stereo not shown) [OC-1]
20 | 10 to 100 | Cc1cccc(COc2ccc(Sc3ccncc3C3NC(=O)NC3=O)cc2)c1 (stereo not shown) [PC-2]
21 | 10 to 100 | CNC(=O)c1cccc(COc2ccc(Sc3ccncc3C3NC(=O)NC3=O)cc2)c1 (stereo not shown) [PC-29]
22 | 10 to 100 | Cc1cc(CN(C)c2ccc(Sc3ccncc3C3NC(=O)NC3=O)cc2)ccn1 (stereo not shown) [PC-58]
23 | 10 to 100 | NC(=O)c1cc(COc2ccc(Sc3ccncc3C3NC(=O)NC3=O)cc2)ccn1 (stereo not shown) [PC-60]
24 | 10 to 100 | CC(C)[C@H](N)C(=O)OCc1cccc(COc2ccc(Sc3ccncc3C3NC(=O)NC3=O)cc2)c1 (stereo partly shown) [PC-11]
25 | 10 to 100 | Cc1cccc(COc2ccc(Sc3cc[n+](O)cc3C3NC(=O)NC3=O)cc2)c1 (stereo not shown) [OC-3]
26 | 10 to 100 | Cc1cccc(COc2ccc(Sc3cnccc3C3NC(=O)NC3=O)cc2)c1 (stereo not shown) [PC-4]
27 | 10 to 100 | Cc1cc(COc2ccc(Sc3ccncc3C3NC(=O)NC3=O)cc2F)ccn1 (stereo not shown) [PC-52]
28 | 10 to 100 | O=C1NC(=O)C(c2cnccc2Sc2ccc(OCc3ccccc3CO)cc2)N1 (stereo not shown) [PC-9]

From patent publication US20190352288A1, “MATRIX METALLOPROTEINASE (MMP) INHIBITORS AND METHODS OF USE THEREOF” (Foresee Pharmaceuticals Co., Ltd., priority 2018, published 2019)
